Source: US9801850B2, “Antibacterial agent” (OSAKA UNIVERSITY, priority 2009, dated 2017)

Tests used:
MRSA ATCC43300 [1] = experiment: MIC with addition of PG, LPS or D-Ala-D-Ala (Example 3); format: cell-based, Staphylococcus aureus; details: MRSA (ATCC43300)
Protocol: (§1) Regarding EGCG-C16, whether or not the antibacterial action thereof against MSSA and MRSA is inhibited by the addition of: peptidoglycan (PG) or D-Ala-D-Ala, which are each a cell wall component; or lipopolysaccharide (LPS), which is an outer membrane component, was examined. The MIC measurement was carried out in the manner described in Section (2) of Example 2.
(§2) In Example 3, EGCG-C16 prepared in Example 1 was used as an antibacterial agent. In Comparative Example 3, unsubstituted EGCG was used as an antibacterial agent. […] Antibacterial agent solutions of EGCG-C16 and EGCG were prepared in the same manner as described in Section (2) of Example 1. Antibacterial agent solutions of the antibacterial agents other than EGCG-C16 and EGCG were prepared by dissolving them in PBS.
(§3) As additives, PG (Peptidoglycan Staphylococcus aureus, SIGMA-ALDRICH), D-Ala-D-Ala (SIGMA-ALDRICH), and LPS (Lipopolysaccharide Salmonella, SIGMA-ALDRICH) were provided. Each of the additives was dissolved in PBS, and the resultant solution was used as an additive solution.
(§4) Dilution series of the antibacterial agent solutions were prepared. Each of them was dispensed to a 96-well plate. Further, the additive solution was added thereto and mixed. After that, a bacterial culture solution of MRSA ATCC43300 or MSSA ATCC25923 was added thereto and cultured at 37° C. for 18 hours. In the mixture of the antibacterial agent solution, the additive solution, and the bacterial culture solution, the final concentrations of PG, D-Ala-D-Ala, and LPS were each set to 30 μg/ml. Unless otherwise stated, the minimum inhibitory concentration (MIC) was calculated in the same manner as described in Section (2) of Example 2.

MSSA ATCC25923 = experiment: as above; format: cell-based, Staphylococcus aureus; details: MSSA (ATCC25923)
Protocol: as §1, §2, §3, §4

MRSA ATCC43300 [2] = experiment: Checker-board method, combination with β-lactam agent (Example 6); format: cell-based, Staphylococcus aureus; design: key to minimum EGCG-C16 concentration inhibiting growth alone: *MIC: The minimum EGCG-C16 concentration when the growth of the bacteria was inhibited using EGCG-C16 alone under a β-lactam agent free condition
Protocol: (§5) EGCG-C16 was dissolved in 100% DMSO, and each of the above-described β-lactam agents was dissolved in sterile distilled water. Thereafter, they were diluted with sterile distilled water so as to achieve predetermined concentrations, and the respective agents at the respective concentrations were combined one another. The change in MIC of each β-lactam agent by the addition of EGCG-C16 was measured by the checker-board method. […] The minimum inhibitory concentration (MIC) of each of the above-described β-lactam agents when used in combination with EGCG-C16 was measured in the same manner as described in Section (2) of Example 2, except that the MRSA ATCC43300 and the MRSA clinical isolate No. 8 used in Example 2 were used as the bacteria.
(§6) As Comparative Example 6, the minimum inhibitory concentration (MIC) was measured in the same manner as in Example 6, except that EGCG was used instead of EGCG-C16.

[3] = tested on: MRSA clinical isolate No. 8; experiment: as above; format: cell-based, Staphylococcus aureus; design: key to minimum EGCG-C16 concentration inhibiting growth alone: *MIC: The minimum EGCG-C16 concentration when the growth of the bacteria was inhibited using EGCG-C16 alone under a β-lactam agent free condition
Protocol: as §5, §6

fungi = experiment: Antifungal effect over the fungi of Table 8; format: cell-based; details: respective types of fungi of Table 8
Protocol: Regarding the respective type strains shown in Tables 7 and 8 below, the MIC measurement was performed using the antibacterial agent solutions of Example 2 in the same manner as described in Section (2) of Example 1, except for the following. The antibacterial agent solutions were prepared by dissolving the EGCG derivatives of Example 2 in 100% DMSO and then diluting the resultant mixtures with sterile distilled water. The respective strains were derived from ATCC or NCTC. As Moraxella catarrhalis and Aspergillus fumigatus, clinical isolates thereof without an acquired resistance mechanism were used. For nutrient-rich bacteria, namely, Streptococcus pneumoniae ATCC49619, Streptococcus pyogenes ATCC19615, Streptococcus agalactiae ATCC13813, Moraxella catarrhalis, and Haemophilis influenzae ATCC49766, Strepto Haemo supplement (Eiken Chemical Co., Ltd.) was added to media for culturing them. The MIC measurement with respect to fungi was carried out by a broth microdilution method using a RPMI1640/MOPS (pH 7.0) medium in accordance with CLSI guidelines. About 2×10^3 cells/ml of fungi were inoculated to the medium. After the culture at 35° C. for 24 to 48 hours, the MIC was determined. Also, regarding the antibacterial agent solution of Comparative Example 2, the MIC was measured in the same manner.

[4] = +LPS (30 μg/mL), upper part of Table 9
[5] = +PG (30 μg/mL), upper part of Table 9 (PG/LPS series)
[6] = MH-broth free of additives, upper part of Table 9 (PG/LPS series)
[7] = MRSA ATCC43300, concentration of EGCG-C16 or EGCG 0 μg/ml
[8] = MRSA ATCC43300, concentration of EGCG-C16 or EGCG 8 μg/ml
[9] = MRSA ATCC43300, concentration of EGCG-C16 or EGCG 16 μg/ml
[10] = MRSA ATCC43300, concentration of EGCG-C16 or EGCG 32 μg/ml
[11] = MRSA ATCC43300, concentration of EGCG-C16 or EGCG 64 μg/ml
[12] = MRSA ATCC43300, concentration of EGCG-C16 or EGCG 128 μg/ml
[13] = concentration of EGCG-C16 or EGCG 0 μg/ml
[14] = concentration of EGCG-C16 or EGCG 8 μg/ml
[15] = +D-Ala-D-Ala (30 μg/mL), lower part of Table 9
[16] = +PG (30 μg/mL), lower part of Table 9 (PG/D-Ala-D-Ala series)
[17] = MH-broth free of additives, lower part of Table 9 (PG/D-Ala-D-Ala series)
[18] = MRSA ATCC43300, concentration of EGCG-C16 or EGCG 2 μg/ml
[19] = MRSA ATCC43300, concentration of EGCG-C16 or EGCG 4 μg/ml

## O=C(O[C@@H]1Cc2c(O)cc(O)cc2O[C@@H]1c1cc(O)c(O)c(O)c1)c1cc(O)c(O)c(O)c1 [EGCG, Epigallocatechin gallate, reference compound]
MRSA ATCC43300 [1]; [4]
  MIC: > 64 µg/mL
MRSA ATCC43300 [1]; [5]
  MIC: > 64 µg/mL
MRSA ATCC43300 [1]; [6]
  MIC: > 64 µg/mL
MSSA ATCC25923; [4]
  MIC: > 64 µg/mL
MSSA ATCC25923; [5]
  MIC: > 64 µg/mL
MSSA ATCC25923; [6]
  MIC: > 64 µg/mL
MRSA ATCC43300 [2]; ATCC43300, IPM susceptible, EGCG at 16 to 64 μg/ml, EGCG derivative in the examined concentration range
  antagonistic action in combination with IPM: weak antagonistic action
MRSA ATCC43300 [2]; [7]
  MIC of ABPC when used in combination with EGCG-C16 or EGCG: 32 µg/mL
  MIC of IPM when used in combination with EGCG-C16 or EGCG: 0.016 µg/mL
MRSA ATCC43300 [2]; [8]
  MIC of ABPC when used in combination with EGCG-C16 or EGCG: 8 µg/mL
  MIC of IPM when used in combination with EGCG-C16 or EGCG: 0.016 µg/mL
MRSA ATCC43300 [2]; [9]
  MIC of ABPC when used in combination with EGCG-C16 or EGCG: 4 µg/mL
  MIC of IPM when used in combination with EGCG-C16 or EGCG: 0.031 µg/mL
MRSA ATCC43300 [2]; [10]
  MIC of ABPC when used in combination with EGCG-C16 or EGCG: 4 µg/mL
  MIC of IPM when used in combination with EGCG-C16 or EGCG: 0.031 µg/mL
MRSA ATCC43300 [2]; [11]
  MIC of ABPC when used in combination with EGCG-C16 or EGCG: 2 µg/mL
  MIC of IPM when used in combination with EGCG-C16 or EGCG: 0.031 µg/mL
MRSA ATCC43300 [2]; [12]
  MIC of ABPC when used in combination with EGCG-C16 or EGCG: 1 µg/mL
  MIC of IPM when used in combination with EGCG-C16 or EGCG: 0.016 µg/mL
[3]; [13]
  MIC of ABPC when used in combination with EGCG-C16 or EGCG: 64 µg/mL
[3]; [14]
  MIC of ABPC when used in combination with EGCG-C16 or EGCG: 4 µg/mL
[3]; concentration of EGCG-C16 or EGCG 16 μg/ml
  MIC of ABPC when used in combination with EGCG-C16 or EGCG: 8 µg/mL
[3]; concentration of EGCG-C16 or EGCG 32 μg/ml
  MIC of ABPC when used in combination with EGCG-C16 or EGCG: 8 µg/mL
[3]; concentration of EGCG-C16 or EGCG 64 μg/ml
  MIC of ABPC when used in combination with EGCG-C16 or EGCG: 4 µg/mL
[3]; concentration of EGCG-C16 or EGCG 128 μg/ml
  MIC of ABPC when used in combination with EGCG-C16 or EGCG: 1 µg/mL

## EGCG-palmitate [EGCG-C16]
MRSA ATCC43300 [1]; [15]
  MIC: 8 µg/mL
MRSA ATCC43300 [1]; [4]
  MIC: 16 µg/mL
MRSA ATCC43300 [1]; [16]
  MIC: 16 µg/mL
MRSA ATCC43300 [1]; [5]
  MIC: 32 µg/mL
MRSA ATCC43300 [1]; [17]
  MIC: 8 µg/mL
MRSA ATCC43300 [1]; [6]
  MIC: 16 µg/mL
MSSA ATCC25923; [15]
  MIC: 16 µg/mL
MSSA ATCC25923; [4]
  MIC: 16 µg/mL
MSSA ATCC25923; [16]
  MIC: 32 µg/mL
MSSA ATCC25923; [5]
  MIC: 32 µg/mL
MSSA ATCC25923; [17]
  MIC: 16 µg/mL
MSSA ATCC25923; [6]
  MIC: 16 µg/mL
MRSA ATCC43300 [2]; [7]
  MIC of ABPC when used in combination with EGCG-C16 or EGCG: 32 µg/mL
  MIC of IPM when used in combination with EGCG-C16 or EGCG: 0.016 µg/mL
MRSA ATCC43300 [2]; [18]
  MIC of ABPC when used in combination with EGCG-C16 or EGCG: 16 µg/mL
  MIC of IPM when used in combination with EGCG-C16 or EGCG: 0.016 µg/mL
MRSA ATCC43300 [2]; [19]
  MIC of ABPC when used in combination with EGCG-C16 or EGCG: 8 µg/mL
  MIC of IPM when used in combination with EGCG-C16 or EGCG: 0.016 µg/mL
MRSA ATCC43300 [2]; [8]
  MIC of ABPC when used in combination with EGCG-C16 or EGCG: 1 µg/mL
  MIC of IPM when used in combination with EGCG-C16 or EGCG: 0.004 µg/mL
MRSA ATCC43300 [2]; MRSA ATCC43300, β-lactam agent free, mark stands in the column 16 μg/ml
  minimum EGCG-C16 concentration inhibiting growth alone: *MIC
[3]; [13]
  MIC of ABPC when used in combination with EGCG-C16 or EGCG: 64 µg/mL
[3]; concentration of EGCG-C16 or EGCG 2 μg/ml
  MIC of ABPC when used in combination with EGCG-C16 or EGCG: 32 µg/mL
[3]; concentration of EGCG-C16 or EGCG 4 μg/ml
  MIC of ABPC when used in combination with EGCG-C16 or EGCG: 16 µg/mL
[3]; [14]
  MIC of ABPC when used in combination with EGCG-C16 or EGCG: 2 µg/mL
[3]; β-lactam agent free, mark stands in the column 16 μg/ml
  minimum EGCG-C16 concentration inhibiting growth alone: *MIC

## EGCG-palmitoleate [EGCG-C16E]
fungi
  antifungal effect: highest antifungal effect

## EGCG-α-linoleate [EGCG-C18TE]
fungi
  antifungal effect: highest antifungal effect
